Results published in US20020068367A1, “Linker and method for solid phase combinatorial synthesis” (priority 2000, published 2002).
Where “and” joins values, the source holds several entries; their conditions need not be identical. Equal entries are not always repeated.

Molecular target: T1, fluorescein-streptavidin (Streptomyces avidinii, UniProt P22629)
T1 construct: purchased Calbiochem-Novabiochem Corp., La Jolla, Calif; 189734
Assay: Standard protein-binding assay: fluorescein-streptavidin binding to linker on streptavidin-coated 96-well plates
Description: Referring to the drawings, and particularly to FIG. 1, generic reactions illustrating two variations of the screening system of the present invention are shown. FIGS. 1a-1d illustrate the generic System 1 reaction wherein a compound comprised of a tether connecting biotin with a chemical compound containing a nitrophenyl group is applied to a streptavidin coated solid phase. The amount of fluorescein-protein complex (c), where the exemplary protein is fluorescein-anti-DNP antibody, bound to the biotin-tether-nitrophenyl complex is characterized by detecting the magnitude of fluorescence emission in each individual well at the completion of the reaction. Similarly, FIG. 1e-1h illustrates the generic System 2 reaction wherein a tether connects 2 biotin groups together and streptavidin is coated on the solid phase. As in the System 1 reaction, the amount of fluorescein-protein complex (g), where the exemplary protein is fluorescein-streptavidin, bound to the biotin-tether-biotin complex is characterized through the detection of fluorescence emissions in each individual well at the completion of the reaction.
In the quantification of the interaction between fluoresceinated-proteins and linkers is characterized by detecting the magnitude of fluorescence emissions in each individual well at the completion of standard protein-binding assay procedures.
A standard protein-binding assay comprises a multi-step process in which strepeavidin pre-treated 96-well plates are exposed to a solution containing linker followed by exposure to a solution containing fluorescein-labeled protein. The 96-well plates are coated with a commercially available streptavidin solution (cat #BPS00100; Xenopore Corp., Hawthorne, N.J.) and then pre-incubated with 300 μl PBS buffer for 10 minutes at room temperature. To complete the pre-incubation process, the PBS buffer is discarded and the plates are further washed five times with water. Once the plate is sufficiently washed, add to the wells 100 μl of pre-mixed binding buffer containing the desired linker, the preparation of which is as described above. After addition of the linker solution, the plate is incubated at 37° C. for one hour. Upon completion of incubation, the linker solution is discarded and the plate is washed with five changes of water. For the fifth step of the assay process, 100 μl of a premixed reaction solution containing 1 M Tris, 0.5 M NaCl and the fluorescein-labeled proteins are added to selected wells of the plate with bound linker. The fluorescein conjugated proteins, anti-dinitrophenyl antibody (rabbit IgG fraction, cat #A-6423) (anti-DNP) and streptavidin (cat #189734) are commercially available from Molecular Probes, Inc., Eugene, Oreg. and Calbiochem Inc., San Diego, Calif. Upon addition of the protein solutions, the plate is further incubated at 37° C. for one hour. Following the incubation period, the reacting solution in each well is discarded and the wells are washed with five changes of 1 M Tris or 30 changes of water. After this final washing step, 250 μl of elution buffer containing 0.5 mM NaOH, methanol and 20 mM EDTA is added to each well and the plate is read using a Spectra MAX Gemini fluorescein plate reader (Molecular Devices Corp., Sunnyvale, Calif.).
Using the standard protein-binding assay described above, linkers 1-7 are evaluated for their ability to bind fluorescein-streptavidin or fluorescein-anti-DNP. The detection of fluorescence emission beyond that of the control would indicate that the fluorescein labeled protein has bound to the corresponding linker. Lack of fluorescence emission would indicate that either the linker or the fluorescein-bound proteins are absent, or that an improper linker was used. This may be interpreted as meaning that the protein of interest, in this exemplary example streptavidin or anti-DNP, “recognizes” the particular library compound being used in the experiment. […]

[1] = Table 5, linker 3 50 nmol, streptavidin-fluorescein 100 pmol
[2] = [Linker] 3 2.5 nmol, fluorescein-streptavidin 100 pmol
[3] = [Linker] 3 5.0 nmol, fluorescein-streptavidin 100 pmol
[4] = [Linker] 3 25.0 nmol, fluorescein-streptavidin 100 pmol
[5] = [Linker] 3 50.0 nmol, fluorescein-streptavidin 100 pmol
[6] = [Linker] 3 250.0 nmol, fluorescein-streptavidin 100 pmol
[7] = [Linker] 3 500.0 nmol, fluorescein-streptavidin 100 pmol
[8] = [Linker] 3 2500.0 nmol, fluorescein-streptavidin 100 pmol
[9] = [Linker] 3 5000.0 nmol, fluorescein-streptavidin 100 pmol
[10] = linker 3 50 nmol, [STREP] 0 pmol (linker only)
[11] = linker 3 50 nmol, [STREP] 0.15 pmol
[12] = linker 3 50 nmol, [STREP] 0.3 pmol
[13] = linker 3 50 nmol, [STREP] 1.0 pmol
[14] = linker 3 50 nmol, [STREP] 3.0 pmol
[15] = linker 3 50 nmol, [STREP] 15.0 pmol
[16] = linker 3 50 nmol, [STREP] 30.0 pmol
[17] = linker 3 50 nmol, [STREP] 45.0 pmol
[18] = linker 3 50 nmol, [STREP] 60.0 pmol

T1 sequence (P22629 25-183): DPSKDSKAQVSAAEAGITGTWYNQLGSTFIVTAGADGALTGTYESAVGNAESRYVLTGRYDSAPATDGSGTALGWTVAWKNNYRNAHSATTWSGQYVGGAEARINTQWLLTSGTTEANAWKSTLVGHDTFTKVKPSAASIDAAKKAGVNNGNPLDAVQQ

O=C(CCCCCNC(=O)CCCCCNC(=O)CCCCC1SCC2NC(=O)NC21)NCCCCCNC(=O)CCCCCNC(=O)CCCCC1SCC2NC(=O)NC21 (stereo not drawn) [Linker 3]
Increase in fluorescence emission (100-fold increase in linker 3 concentration (0.5 nmol to 50 nmol)): no significant increase
Increase in fluorescence emission (100-fold increase in linker concentration at much higher concentrations of linker 3): 2 fold
Fluorescence emission, mean of Columns 1-3 [1]: 479.29
Fluorescence emission, sum of Columns 1-2 [1]: 987.05
Fluorescence emission, sum of Columns 1-3 [1]: 1437.9
Fluorescence emission (Table 5, linker 3 50 nmol, streptavidin-fluorescein 100 pmol, replicates): 492.22 and 494.83 and 450.81
Detected fluorescence emission (Well #1, linker 3 50 nmol, streptavidin-fluorescein 100 pmol): about 500
Fluorescence emission, mean of Columns 1-3 [2]: 181.30
Fluorescence emission, sum of Columns 1-2 [2]: 406.14
Fluorescence emission, sum of Columns 1-3 [2]: 543.91
Fluorescence emission ([Linker] 3 2.5 nmol, fluorescein-streptavidin 100 pmol, replicates): 230.68 and 175.46 and 137.77
Fluorescence emission, mean of Columns 1-3 [3]: 193.80
Fluorescence emission, sum of Columns 1-2 [3]: 467.1
Fluorescence emission, sum of Columns 1-3 [3]: 581.41
Fluorescence emission ([Linker] 3 5.0 nmol, fluorescein-streptavidin 100 pmol, replicates): 239.14 and 227.96 and 114.31
Fluorescence emission, mean of Columns 1-3 [4]: 211.91
Fluorescence emission, sum of Columns 1-2 [4]: 469.52
Fluorescence emission, sum of Columns 1-3 [4]: 635.73
Fluorescence emission ([Linker] 3 25.0 nmol, fluorescein-streptavidin 100 pmol, replicates): 223.84 and 245.68 and 166.21
Fluorescence emission, mean of Columns 1-3 [5]: 280.99
Fluorescence emission, sum of Columns 1-2 [5]: 502.51
Fluorescence emission, sum of Columns 1-3 [5]: 782.96
Fluorescence emission ([Linker] 3 50.0 nmol, fluorescein-streptavidin 100 pmol, replicates): 226.70 and 275.81 and 280.45
Fluorescence emission, mean of Columns 1-3 [6]: 313.49
Fluorescence emission, sum of Columns 1-2 [6]: 597.65
Fluorescence emission, sum of Columns 1-3 [6]: 940.47
Fluorescence emission ([Linker] 3 250.0 nmol, fluorescein-streptavidin 100 pmol, replicates): 261.21 and 336.44 and 342.82
Fluorescence emission, mean of Columns 1-3 [7]: 352.86
Fluorescence emission, sum of Columns 1-2 [7]: 703.68
Fluorescence emission, sum of Columns 1-3 [7]: 1058.6
Fluorescence emission ([Linker] 3 500.0 nmol, fluorescein-streptavidin 100 pmol, replicates): 325.94 and 377.74 and 354.91
Fluorescence emission, mean of Columns 1-3 [8]: 457.81
Fluorescence emission, sum of Columns 1-2 [8]: 920.68
Fluorescence emission, sum of Columns 1-3 [8]: 1373.4
Fluorescence emission ([Linker] 3 2500.0 nmol, fluorescein-streptavidin 100 pmol, replicates): 474.19 and 446.49 and 452.76
Fluorescence emission, mean of Columns 1-3 [9]: 440.22
Fluorescence emission, sum of Columns 1-2 [9]: 883.57
Fluorescence emission, sum of Columns 1-3 [9]: 1320.7
Fluorescence emission ([Linker] 3 5000.0 nmol, fluorescein-streptavidin 100 pmol, replicates): 447.77 and 435.80 and 437.09
Effect on binding capacity of fluorescein-streptavidin (generic System 2): significantly enhances the binding capacity
Fluorescence emission (linker 3 0.5 nmol, fluorescein-streptavidin 100 pmol): 239.14
Fluorescence emission, mean of Columns 1-3 [10]: 150.00 and 142.49
Fluorescence emission, sum of Columns 1-2 [10]: 311.12 and 280.3
Fluorescence emission, sum of Columns 1-3 [10]: 450.01 and 427.46
Fluorescence emission (linker 3 50 nmol, [STREP] 0 pmol (linker only), replicates): 158.28 and 152.84 and 138.89 and 156.28 and 124.02 and 147.16
Fluorescence emission, mean of Columns 1-3 [11]: 147.68
Fluorescence emission, sum of Columns 1-2 [11]: 276.44
Fluorescence emission, sum of Columns 1-3 [11]: 443.03
Fluorescence emission (linker 3 50 nmol, [STREP] 0.15 pmol, replicates): 110.75 and 110.57 and 165.87 and 166.59
Fluorescence emission, mean of Columns 1-3 [12]: 129.73
Fluorescence emission, sum of Columns 1-2 [12]: 226.97
Fluorescence emission, sum of Columns 1-3 [12]: 389.19
Fluorescence emission (linker 3 50 nmol, [STREP] 0.3 pmol, replicates): 72.275 and 154.69 and 162.22
Fluorescence emission, mean of Columns 1-3 [13]: 197.16
Fluorescence emission, sum of Columns 1-2 [13]: 389.28
Fluorescence emission, sum of Columns 1-3 [13]: 591.47
Fluorescence emission (linker 3 50 nmol, [STREP] 1.0 pmol, replicates): 167.36 and 221.92 and 202.19
Fluorescence emission, mean of Columns 1-3 [14]: 253.59
Fluorescence emission, sum of Columns 1-2 [14]: 542.04
Fluorescence emission, sum of Columns 1-3 [14]: 760.78
Fluorescence emission (linker 3 50 nmol, [STREP] 3.0 pmol, replicates): 237.61 and 304.43 and 218.74
Fluorescence emission, mean of Columns 1-3 [15]: 257.02
Fluorescence emission, sum of Columns 1-2 [15]: 482.28
Fluorescence emission, sum of Columns 1-3 [15]: 771.07
Fluorescence emission (linker 3 50 nmol, [STREP] 15.0 pmol, replicates): 220.15 and 262.13 and 288.79
Fluorescence emission, mean of Columns 1-3 [16]: 326.19
Fluorescence emission, sum of Columns 1-2 [16]: 601.80
Fluorescence emission, sum of Columns 1-3 [16]: 978.58
Fluorescence emission (linker 3 50 nmol, [STREP] 30.0 pmol, replicates): 395.67 and 206.13 and 376.78
Fluorescence emission, mean of Columns 1-3 [17]: 474.38
Fluorescence emission, sum of Columns 1-2 [17]: 994.49
Fluorescence emission, sum of Columns 1-3 [17]: 1423.2
Fluorescence emission (linker 3 50 nmol, [STREP] 45.0 pmol, replicates): 454.46 and 540.03 and 428.66
Fluorescence emission, mean of Columns 1-3 [18]: 463.43
Fluorescence emission, sum of Columns 1-2 [18]: 959.13
Fluorescence emission, sum of Columns 1-3 [18]: 1390.3
Fluorescence emission (linker 3 50 nmol, [STREP] 60.0 pmol, replicates): 548.75 and 410.38 and 431.15
Increase in fluorescence emission (linker 3, 100-fold increase in fluorescein-streptavidin concentration (0.15 to 15 pm)): 2 fold
